Active and inactive are the calls of the source.
What was measured:
[1] = biological target: Paired box protein Pax-8 (Homo sapiens, UniProt Q06710); assay: inhibitors of PAX8-driven TPO luciferase reporter, dose response, RMG-I cells, cherry-pick (AID 687027); assay type: functional, cell-based;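 also: luciferase reporter driven by Pax8 target thyroperoxidase promoter measured by SteadyGlo luminescence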
[2] = PAX2 cell-based inhibition, dose response, selectivity assay for PAX8 inhibitor project, plate reader, dry powder samples (AID 743048); assay type: functional;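 also: HEK293 cells carrying a WT1 promoter luciferase reporter driven by expressed Pax2; potency is for inhibition of Pax2 driven reporter signal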
[3] = cytotoxicity in COV362 ovarian cancer cells, dose response, cytotoxicity control for PAX8 inhibitor project, cell-based, plate reader, dry powder, SA12 (AID 743144); assay type: functional
[4] = NIH:OVCAR-3 ovarian cancer cell cytotoxicity, dose response, PAX8 inhibitor project, plate reader, dry powder samples (AID 743044); assay type: functional, cell-based
[5] = PAX5 activity inhibitors, dose response, selectivity assay for PAX8 inhibitor project, cell-based, plate reader, dry powder samples (AID 743047); assay type: functional;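 also: HEK293 cells carrying a Pax5 driven CD19 promoter luciferase reporter; potency of inhibitors that lower reporter luminescence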
[6] = cytotoxicity in OVCAR4 cells, dose response, cytotoxicity control for PAX8 inhibitor project, cell-based, plate reader, dry powder, SA11 (AID 743150); assay type: functional; conditions: OVCAR-4
[7] = cytotoxicity in COV434 cells, dose response, cytotoxicity control for PAX8 inhibitor project, cell-based, plate reader, dry powder, SA7 (AID 743145); assay type: functional
[8] = cytotoxicity in OV-90 ovarian cancer cells, dose response, PAX8 inhibitor project, cell-based, plate reader, dry powder, SA8 (AID 743149); assay type: functional
[9] = cytotoxicity dependent on PAX8, dose response, cell-based, plate reader, dry powder (AID 743049); assay type: functional
[10] = P. falciparum 3D7-ScDHODH growth inhibitors, dose response, SYBR Green, dry powder samples (AID 1159570); assay type: functional, cell-based;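 also: parasite growth measured after 72 hours of compound exposure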
[11] = P. falciparum Dd2 growth inhibitors, dose response, SYBR Green, cherry-picked samples (AID 1159567); assay type: functional, cell-based
[12] = P. falciparum Dd2 growth inhibitors, dose response, SYBR Green, dry powder samples (AID 1159566); assay type: functional, cell-based;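 also: potency for growth inhibition with lower SYBR green DNA signal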
[13] = HepG2 cell cytotoxicity, dose response, cytotoxicity control, cherry-picked samples (AID 1159577); assay type: functional, cell-based
[14] = P. falciparum ATP4 D1247Y mutant growth inhibitors, dose response, NITD609-resistant line, SYBR Green, dry powder (AID 1159571); assay type: functional, cell-based;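 also: parasites synchronized at ring stage by sorbitol before testing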
[15] = biological target: Peroxisome proliferator-activated receptor gamma/Nuclear receptor corepressor 2 (Homo sapiens, UniProt P37231+Q9Y618); assay: Counterscreen for NR2E3 inverse agonists: TR-FRET-based biochemical high throughput dose response assay to identify inverse agonists of the interaction between peroxisome proliferator-activated receptor gamma (PPARg) and nuclear receptor co-repressor 2 (NCOR2).; assay type: functional
[16] = biological target: Photoreceptor-specific nuclear receptor (Homo sapiens, UniProt Q9Y5X4); assay: NR2E3 inverse agonists, dose response, biochemical, TR-FRET (AID 463256); assay type: functional
Photoreceptor-specific nuclear receptor, sequence (Q9Y5X4 whole entry): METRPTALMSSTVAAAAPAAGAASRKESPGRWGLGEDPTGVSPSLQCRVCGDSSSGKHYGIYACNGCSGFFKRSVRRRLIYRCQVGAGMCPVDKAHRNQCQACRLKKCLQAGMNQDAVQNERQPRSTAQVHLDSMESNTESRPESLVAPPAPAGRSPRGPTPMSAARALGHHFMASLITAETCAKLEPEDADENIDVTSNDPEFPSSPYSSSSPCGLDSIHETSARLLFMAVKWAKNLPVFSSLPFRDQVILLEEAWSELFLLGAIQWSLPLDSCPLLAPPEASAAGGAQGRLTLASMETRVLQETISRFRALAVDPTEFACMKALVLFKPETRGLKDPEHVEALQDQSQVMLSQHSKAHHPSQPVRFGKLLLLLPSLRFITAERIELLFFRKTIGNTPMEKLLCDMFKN

[17] = biological target: T1, Small ubiquitin-related modifier 1 (Homo sapiens, UniProt P63165); assay: inhibitors of SUMO1 peptide binding, dose response, biochemical, fluorescence polarization, uHTS hits (AID 624382); assay type: functional; conditions: read-out: IC50_Mean
T1 sequence (P63165 whole entry): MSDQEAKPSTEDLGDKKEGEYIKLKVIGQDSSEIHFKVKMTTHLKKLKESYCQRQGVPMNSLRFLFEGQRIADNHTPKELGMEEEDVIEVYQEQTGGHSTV

[18] = biological target: T1, Small ubiquitin-related modifier 1; assay: inhibitors of SUMO1 partner interactions, dose response, biochemical, FRET (AID 624383); assay type: functional; conditions: read-out: IC50_Mean
[19] = biological target: E3 ubiquitin-protein ligase UHRF1 (Homo sapiens, UniProt Q96T88); assay: Counterscreen for inhibitors of 5-meCpG-binding domain protein 2 (MBD2): TRFRET-based biochemical high throughput dose response assay to identify inhibitors of binding of ubiquitin-like with PHD and ring finger domains 1 (UHRF1) to methylated oligonucleotide.
E3 ubiquitin-protein ligase UHRF1, sequence (Q96T88 whole entry, the tested form may be a part): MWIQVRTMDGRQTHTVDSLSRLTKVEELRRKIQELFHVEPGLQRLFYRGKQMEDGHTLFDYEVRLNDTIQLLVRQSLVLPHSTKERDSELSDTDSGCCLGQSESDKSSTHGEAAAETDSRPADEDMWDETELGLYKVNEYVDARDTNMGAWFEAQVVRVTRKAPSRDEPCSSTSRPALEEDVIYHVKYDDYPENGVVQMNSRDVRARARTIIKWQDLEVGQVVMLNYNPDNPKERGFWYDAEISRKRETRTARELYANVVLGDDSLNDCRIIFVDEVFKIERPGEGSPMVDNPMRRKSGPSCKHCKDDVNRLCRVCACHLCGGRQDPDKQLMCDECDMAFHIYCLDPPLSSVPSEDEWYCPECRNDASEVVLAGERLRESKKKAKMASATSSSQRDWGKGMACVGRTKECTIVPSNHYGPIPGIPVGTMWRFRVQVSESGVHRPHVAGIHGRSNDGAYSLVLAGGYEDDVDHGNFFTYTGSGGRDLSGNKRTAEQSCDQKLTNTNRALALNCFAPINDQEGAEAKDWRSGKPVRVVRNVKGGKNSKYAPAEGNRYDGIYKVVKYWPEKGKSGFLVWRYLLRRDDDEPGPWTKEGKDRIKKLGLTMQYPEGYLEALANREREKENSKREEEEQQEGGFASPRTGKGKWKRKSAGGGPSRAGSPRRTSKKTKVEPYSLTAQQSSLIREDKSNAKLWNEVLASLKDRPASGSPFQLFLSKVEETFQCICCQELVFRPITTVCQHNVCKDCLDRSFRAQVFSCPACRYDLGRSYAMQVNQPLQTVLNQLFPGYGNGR

[20] = inhibitors of non-replicating M. tuberculosis, dose response, luciferase, dry powder (AID 651619); assay type: functional; conditions: Mycobacterium tuberculosis
[21] = cytotoxicity in HeLa cells, dose response, cytotoxicity control, cell-based, plate reader, dry powder (AID 651946); assay type: functional
[22] = HEK293T cell cytotoxicity, dose response, cytotoxicity control, CellTiter-Glo luminescence, dry powder, set 6 (AID 651949); assay type: functional, cell-based; conditions: HEK293
[23] = inhibitors of non-replicating M. tuberculosis, dose response, luciferase, dry powder (AID 651620); assay type: functional; conditions: Mycobacterium tuberculosis
[24] = biological target: Luciferin 4-monooxygenase (Photinus pyralis, UniProt P08659); assay: Counter Screen for Luciferase-based Assay Positives. [Related pubchem assays: 620, 618, 411 ]
Luciferin 4-monooxygenase, sequence (P08659 whole entry): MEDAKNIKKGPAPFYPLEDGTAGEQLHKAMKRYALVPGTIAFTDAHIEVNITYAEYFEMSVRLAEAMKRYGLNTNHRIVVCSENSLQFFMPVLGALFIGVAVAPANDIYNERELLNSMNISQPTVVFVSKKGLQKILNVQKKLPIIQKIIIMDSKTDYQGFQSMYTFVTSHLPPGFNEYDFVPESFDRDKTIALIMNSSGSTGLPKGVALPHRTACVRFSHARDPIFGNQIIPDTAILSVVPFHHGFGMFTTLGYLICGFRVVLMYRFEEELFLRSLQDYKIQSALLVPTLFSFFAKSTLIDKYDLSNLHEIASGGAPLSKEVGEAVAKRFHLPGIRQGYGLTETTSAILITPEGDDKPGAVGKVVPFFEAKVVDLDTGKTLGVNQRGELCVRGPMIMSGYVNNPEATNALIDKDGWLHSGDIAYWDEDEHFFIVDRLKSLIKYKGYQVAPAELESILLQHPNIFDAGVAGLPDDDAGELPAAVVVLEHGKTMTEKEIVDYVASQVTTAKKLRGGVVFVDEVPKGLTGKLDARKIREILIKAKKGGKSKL

[25] = test system: HT-1080; assay: cytotoxicity in HT1080 fibrosarcoma cells, cell-based, fluorescence readout (AID 620); assay type: functional; conditions: Homo sapiens
[26] = Luminescence-based cell-based high throughput dose response assay to identify activators of the DAF-12 from the parasite S. stercoralis (ssDAF-12).; assay type: functional
[27] = biological target: T2, Oxysterols receptor LXR-beta (Homo sapiens, UniProt P55055); assay: LXR agonists, Gal4 luciferase reporter, dose response, counter-screen for ssDAF-12 agonist project, cell-based, luminescence, HEK293, S. stercoralis campaign (AID 720737); assay type: functional; conditions: read-out: IC50 (the source's name)
T2 sequence (P55055 whole entry): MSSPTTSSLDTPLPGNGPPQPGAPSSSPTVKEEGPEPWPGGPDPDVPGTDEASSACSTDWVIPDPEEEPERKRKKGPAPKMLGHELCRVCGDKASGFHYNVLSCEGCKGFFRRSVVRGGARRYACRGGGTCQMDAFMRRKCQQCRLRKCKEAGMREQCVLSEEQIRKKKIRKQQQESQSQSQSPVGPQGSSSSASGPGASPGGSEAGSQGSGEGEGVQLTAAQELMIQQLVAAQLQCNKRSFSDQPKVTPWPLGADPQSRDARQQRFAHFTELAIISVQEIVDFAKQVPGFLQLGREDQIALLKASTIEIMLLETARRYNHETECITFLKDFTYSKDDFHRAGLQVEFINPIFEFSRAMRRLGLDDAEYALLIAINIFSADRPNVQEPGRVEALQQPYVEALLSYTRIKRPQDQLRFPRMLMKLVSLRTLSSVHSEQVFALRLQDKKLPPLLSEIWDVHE

[28] = biological target: T2, Oxysterols receptor LXR-beta; assay type: functional, cell-based
[29] = cells
[30] = biological target: T3, Protein skinhead-1 (Caenorhabditis elegans, UniProt P34707); assay type: functional
T3 sequence (P34707 whole entry): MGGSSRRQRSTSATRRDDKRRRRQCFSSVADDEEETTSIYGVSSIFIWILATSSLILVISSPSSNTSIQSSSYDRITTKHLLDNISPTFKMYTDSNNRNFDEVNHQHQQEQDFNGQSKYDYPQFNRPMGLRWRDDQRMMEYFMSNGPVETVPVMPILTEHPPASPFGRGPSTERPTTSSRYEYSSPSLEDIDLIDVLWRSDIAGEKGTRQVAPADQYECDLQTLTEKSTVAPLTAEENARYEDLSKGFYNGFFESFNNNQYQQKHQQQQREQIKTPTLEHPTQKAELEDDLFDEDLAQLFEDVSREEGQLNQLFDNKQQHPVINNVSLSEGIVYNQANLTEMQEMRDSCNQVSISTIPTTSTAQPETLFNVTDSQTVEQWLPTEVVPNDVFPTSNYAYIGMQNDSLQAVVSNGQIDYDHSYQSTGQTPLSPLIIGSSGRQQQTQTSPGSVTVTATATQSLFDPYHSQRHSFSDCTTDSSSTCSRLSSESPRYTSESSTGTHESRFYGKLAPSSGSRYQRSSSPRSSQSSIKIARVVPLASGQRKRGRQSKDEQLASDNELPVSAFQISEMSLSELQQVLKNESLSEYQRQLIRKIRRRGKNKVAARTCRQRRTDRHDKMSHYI

[31] = biological target: T4, Fibrinogen beta chain (Homo sapiens, UniProt P02675); assay: Fluorescence polarization-based biochemical high throughput dose response assay to identify inhibitors that disrupt the binding of a cyclic peptide (Tn6) to the fibrin proteolytic product D-Dimer and fragment E complex [DD(E )].
T4 sequence (P02675 whole entry, the tested form may be a part): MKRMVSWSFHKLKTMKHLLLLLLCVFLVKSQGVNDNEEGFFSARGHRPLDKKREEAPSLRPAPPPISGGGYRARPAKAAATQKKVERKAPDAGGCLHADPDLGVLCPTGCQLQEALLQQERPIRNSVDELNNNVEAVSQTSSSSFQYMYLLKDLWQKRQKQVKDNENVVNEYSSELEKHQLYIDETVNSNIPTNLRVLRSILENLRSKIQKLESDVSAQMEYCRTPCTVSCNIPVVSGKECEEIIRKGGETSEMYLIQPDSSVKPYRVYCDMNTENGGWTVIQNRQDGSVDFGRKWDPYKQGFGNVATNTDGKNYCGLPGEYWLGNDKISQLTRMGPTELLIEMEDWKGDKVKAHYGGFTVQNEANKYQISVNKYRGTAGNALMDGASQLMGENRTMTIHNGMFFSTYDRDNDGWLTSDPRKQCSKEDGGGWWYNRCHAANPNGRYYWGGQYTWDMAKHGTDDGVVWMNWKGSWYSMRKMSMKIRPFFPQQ

[32] = biological target: T4, Fibrinogen beta chain; assay: Fluorescence polarization-based biochemical high throughput dose response assay to identify inhibitors that disrupt the binding of a cyclic peptide (Tn7) to the fibrin proteolytic product D-Dimer and fragment E complex [DD(E )].
[33] = biological target: NAD-dependent protein deacylase sirtuin-5, mitochondrial (Homo sapiens, UniProt Q9NXA8); assay: SIRT5 deacylase inhibitors, dose response, biochemical, fluorescence imaging, cherry-pick, set 6 (AID 720597)
NAD-dependent protein deacylase sirtuin-5, mitochondrial, sequence (Q9NXA8 whole entry): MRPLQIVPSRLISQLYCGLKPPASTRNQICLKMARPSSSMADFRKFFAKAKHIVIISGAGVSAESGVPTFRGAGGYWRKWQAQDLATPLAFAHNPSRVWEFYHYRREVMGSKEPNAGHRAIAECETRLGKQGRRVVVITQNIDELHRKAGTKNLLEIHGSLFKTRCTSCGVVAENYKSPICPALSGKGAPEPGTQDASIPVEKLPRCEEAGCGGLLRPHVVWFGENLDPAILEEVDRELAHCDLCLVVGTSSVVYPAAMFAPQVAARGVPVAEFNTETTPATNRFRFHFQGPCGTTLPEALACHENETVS

Paired box protein Pax-8, sequence (Q06710 whole entry): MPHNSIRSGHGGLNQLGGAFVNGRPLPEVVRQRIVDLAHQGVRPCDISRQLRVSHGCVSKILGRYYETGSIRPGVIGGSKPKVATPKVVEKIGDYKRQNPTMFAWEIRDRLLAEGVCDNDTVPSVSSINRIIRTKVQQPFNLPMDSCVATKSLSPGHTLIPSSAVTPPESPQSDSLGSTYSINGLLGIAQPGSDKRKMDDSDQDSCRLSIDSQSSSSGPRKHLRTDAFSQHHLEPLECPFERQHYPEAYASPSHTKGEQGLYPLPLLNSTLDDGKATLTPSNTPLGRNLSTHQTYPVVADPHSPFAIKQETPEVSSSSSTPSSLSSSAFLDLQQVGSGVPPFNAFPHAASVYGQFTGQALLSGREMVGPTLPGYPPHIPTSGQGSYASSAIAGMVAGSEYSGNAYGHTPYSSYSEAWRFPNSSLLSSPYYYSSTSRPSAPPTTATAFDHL

In the case of `N#C[C@H]1[C@@H](c2ccc(C#Cc3ccccc3F)cc2)[C@@H](CO)N1C(=O)C1CCCCC1`, the AC50 [1] is reported as 3.09 µM (active), the AC50 [2] is reported as 14.2 µM (active) and the AC50 [3] is reported as 36.2 µM (active). For the same compound, the AC50 [4] was 16.1 µM (active), the AC50 [5] was 13 µM (active) and the AC50 [6] was 3.01 µM (active). For the same compound, the AC50 [7] was 20.3 µM (active), the AC50 [8] was 27.7 µM (active) and the AC50 [9] was 7.86 µM (active). The AC50 [10] was 0.8 µM (active), the AC50 [11] was 1.09 µM (active) and the AC50 [12] was 0.584 µM (active). For the same compound, the AC50 [13] was > 39 µM (inactive) and the AC50 [14] was 1.23 µM (active).
In the case of `N#CCC(=O)Nc1ccc(C(=O)OCC(=O)c2ccc3c(c2)NC(=O)CO3)cc1`, the IC50 [15] is reported as 4.39 µM (active), the IC50 [16] is reported as 4.46 µM (active) and the IC50 [17] is reported as > 66.6 µM (inactive). The IC50 [18] was 10.1 µM (active) and the IC50 [19] was > 43.8 µM (inactive).
For `Fc1ccc(Cn2cc(CSc3nnc(-c4ccc(Cl)cc4)o3)nn2)cc1`, the IC90 [20] was 1 µM (active), the AC50 [21] was > 52 µM (inactive) and the AC50 [22] was > 52 µM (inactive). For the same compound, the IC90 [23] was 1 µM (active).
For `O=C1c2ccccc2C(=O)C1c1nccc2ccccc12`, the EC50 [24] was 1.3 µM (active), the EC50 [25] was > 50 µM (not active) and the IC50 [26] was > 67.5 µM (inactive). For the same compound, the EC50 [27] was > 67.5 µM (inactive), the EC50 [28] was > 67.5 µM (inactive) and the EC50 [29] was > 67.5 µM (inactive).
For `c1ccc2c(c1)CCN(C1=Nc3cccc4cccc1c34)C2`, the IC50 [30] was > 100 µM (inactive), the IC50 [31] was 46.1 µM (inactive) and the IC50 [32] was > 83.3 µM (inactive).
In the case of `C[C@H](CO)N1C[C@H](C)[C@H](CN(C)C(=O)Cc2ccccc2)Oc2ncc(C3=CCCCC3)cc2C1=O`, the AC50 [33] is reported as > 30 µM (inactive).

— ChEMBL document CHEMBL1201862, “PubChem BioAssay data set” (2004)
